Laboratory results from ChEMBL document CHEMBL5727027, “Compounds useful as CCR9 modulators” (2018).

Target: T1, C-C chemokine receptor type 9 (Homo sapiens, UniProt P51686)
T1 sequence (P51686 whole entry): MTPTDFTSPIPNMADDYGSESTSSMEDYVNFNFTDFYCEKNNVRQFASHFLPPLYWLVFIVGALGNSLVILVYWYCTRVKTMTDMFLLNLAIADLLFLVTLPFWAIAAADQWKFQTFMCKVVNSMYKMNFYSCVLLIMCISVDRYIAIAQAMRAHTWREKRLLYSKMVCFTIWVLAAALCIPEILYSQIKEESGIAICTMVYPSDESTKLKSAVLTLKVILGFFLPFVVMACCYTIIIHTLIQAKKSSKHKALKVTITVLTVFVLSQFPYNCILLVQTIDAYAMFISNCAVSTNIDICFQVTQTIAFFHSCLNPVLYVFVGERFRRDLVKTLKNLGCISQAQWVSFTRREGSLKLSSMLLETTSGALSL
Assay: FLIPR Assay: A calcium flux assay was used to determine the ability of the compounds to interfere with the binding between CCR9 and its chemokine ligand (TECK) in Chem1-hCCR9 overexpressing cells. hCCR9 overexpressing cells were seeded (25,000 cells/well) into black Poly-D-Lysine coated clear bottom 96-well plates (BD Biosciences, Cat #356640) and incubated overnight at 37° C./5% CO2 in a humidified incubator. Media was aspirated and cells washed twice with 100 μL assay buffer (1×HBSS, 20 mM HEPES) containing 2.5 mM Probenecid. A 0.3× Fluo-4 NW calcium dye was prepared in assay buffer containing 5 mM Probenecid and stored in the dark. Each well was loaded with 100 μL of 0.3× Fluo-4 NW calcium dye and incubated at 37° C./5% CO2 for 60 minutes and then at room temperature for 30 minutes. A half-log serially diluted concentration response curve was prepared at a 3× final assay concentration for each compound (10 μM-0.1 nM final assay concentration) and 50 μL of the compound then transferred to the cells (150 μL final volume) for 60 minutes prior to stimulation (30 minutes at 37° C./5% CO2 and 30 minutes at room temperature). TECK was diluted to 4× its EC80 in assay buffer (containing 0.1% [w/v] bovine serum albumin [BSA]) and 50 μL dispensed through the fluorometric imaging plate reader (FLIPR) instrument to stimulate the cells (200 μL final volume). […]
Format: cell-based

Ki: 84 nM
SMILES: CC(C)(C)c1ccc(S(=O)(=O)Nc2ccc(C#N)c3c2C(=O)N(Cc2ccc[n+]([O-])c2)C3=O)cc1
